Laboratory results as given in US6355799B1, “Substituted benzene compounds, process for their preparation, and herbicidal and defoliant compositions containing them” (ISK Americas Incorporated, priority 1997, dated 2002).

Experiments:
Assay type in all cases: in vivo
[1] = system: redroot pigweed (Amaranthus retroflexus, AMARE); assay: Pre-emerge test, greenhouse herbicide activity screening
Procedure, shortened: (§1)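 Plants grown in 10 cm pots of sandy loam mix received acetone-dissolved compounds through a moving flat-fan nozzle. Doses ranged from 15 to 1000 g ai/ha. Pre-emerge pots were seeded one day earlier, post-emerge pots 8–21 days earlier. Fourteen days on, each pot was graded 0–100 for damage.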

[2] = system: barnyardgrass (Echinochloa crus-galli, ECHCG); assay: as above
Procedure, shortened: (§2)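 Rating: 0–100 visual injury, 14 DAA. Application: acetone, 187 l/ha, 15–1000 g ai/ha, flat-fan track sprayer with nozzle 40–45 cm above soil or canopy. Post-emerge runs used 0.25% v/v surfactant on 2–3 leaf plants.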

[3] = system: green foxtail (Setaria viridis, SETVI); assay: as above
Procedure, shortened: as §2

[4] = system: ivyleaf morningglory (Ipomoea hederacea, IPOHE); assay: as above
Procedure, shortened: as §2

[5] = system: johnsongrass (Sorghum halepense, SORHA); assay: as above
Procedure, shortened: as §2

[6] = system: lambsquarters (Chenopodium album, CHEAL); assay: as above
Procedure, shortened: as §2

[7] = system: large crabgrass (Digitaria sanguinalis, DIGSA); assay: as above
Procedure, shortened: as §2

[8] = system: sicklepod (Cassia obtusifolia, CASOB); assay: as above
Procedure, shortened: as §2

[9] = system: velvetleaf (Abutilon theophrasti, ABUTH); assay: as above
Procedure, shortened: as §2

[10] = system: field corn (Zea mays L., var. Dekalb 535, CORN); assay: Pre-emerge test, crop safety
Procedure, shortened: as §1

[11] = system: upland rice (Oryza sp., var. Tebonnet, RICE); assay: Pre-emerge test, crop safety
Procedure, shortened: as §1

[12] = system: barnyardgrass (Echinochloa crus-galli, ECHCG); assay: Post-emerge test, greenhouse herbicide activity screening; details: post-emerge; for phytotoxicity rating ECHCG: 14 days after application, rating scale 0-100; for Post-emerge Herbicidal Activity ECHCG: phytotoxicity rating 0-100 at 14 days after application
Procedure, shortened: (§3)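 Compounds in acetone were track-sprayed at 15–1000 g ai/ha: pre-emergence onto soil sown the previous day, then top-watered to incorporate and later bottom-watered; post-emergence onto 2–3 leaf plants with 0.25% v/v surfactant, bottom-watered only. Ratings on a 0–100 phytotoxicity scale were taken at day 14.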

[13] = system: green foxtail (Setaria viridis, SETVI); assay: as above; details: post-emerge; for phytotoxicity rating SETVI: 14 days after application, rating scale 0-100; for Post-emerge Herbicidal Activity SETVI: phytotoxicity rating 0-100 at 14 days after application
Procedure, shortened: as §3

[14] = system: ivyleaf morningglory (Ipomoea hederacea, IPOHE); assay: as above; details: post-emerge; for phytotoxicity rating IPOHE: 14 days after application, rating scale 0-100; for Post-emerge Herbicidal Activity IPOHE: phytotoxicity rating 0-100 at 14 days after application
Procedure, shortened: as §3

[15] = system: lambsquarters (Chenopodium album, CHEAL); assay: as above; details: post-emerge; for phytotoxicity rating CHEAL: 14 days after application, rating scale 0-100; for Post-emerge Herbicidal Activity CHEAL: phytotoxicity rating 0-100 at 14 days after application
Procedure, shortened: as §3

[16] = system: large crabgrass (Digitaria sanguinalis, DIGSA); assay: as above; details: post-emerge; for phytotoxicity rating DIGSA: 14 days after application, rating scale 0-100; for Post-emerge Herbicidal Activity DIGSA: phytotoxicity rating 0-100 at 14 days after application
Procedure, shortened: as §3

[17] = system: redroot pigweed (Amaranthus retroflexus, AMARE); assay: as above; details: post-emerge; for phytotoxicity rating AMARE: 14 days after application; for Post-emerge Herbicidal Activity AMARE: phytotoxicity rating 0-100 at 14 days after application
Procedure, shortened: as §3

[18] = system: sicklepod (Cassia obtusifolia, CASOB); assay: as above; details: post-emerge; for phytotoxicity rating CASOB: 14 days after application, rating scale 0-100; for Post-emerge Herbicidal Activity CASOB: phytotoxicity rating 0-100 at 14 days after application
Procedure, shortened: as §3

[19] = system: velvetleaf (Abutilon theophrasti, ABUTH); assay: as above; details: post-emerge; for phytotoxicity rating ABUTH: 14 days after application, rating scale 0-100; for Post-emerge Herbicidal Activity ABUTH: phytotoxicity rating 0-100 at 14 days after application
Procedure, shortened: as §3

[20] = system: field corn (Zea mays L., var. Dekalb 535, CORN); assay: Post-emerge test, crop safety; details: post-emerge; for phytotoxicity rating CORN (crop damage): 14 days after application, rating scale 0-100; for Post-emerge Herbicidal Activity CORN: crop damage rating 0-100 at 14 days after application
Procedure, shortened: as §1

[21] = system: upland rice (Oryza sp., var. Tebonnet, RICE); assay: Post-emerge test, crop safety; details: post-emerge; for phytotoxicity rating RICE (crop damage): 14 days after application, rating scale 0-100; for Post-emerge Herbicidal Activity RICE: crop damage rating 0-100 at 14 days after application
Procedure, shortened: as §1

[22] = 63 g ai/ha, phytotoxicity rating 0-100, 14 days after application
[23] = 250 g ai/ha, phytotoxicity rating 0-100, 14 days after application
[24] = 63 g ai/ha, crop damage rating 0-100, 14 days after application
[25] = 250 g ai/ha, crop damage rating 0-100, 14 days after application
[26] = pre-emerge, rate 63 g ai/ha, phytotoxicity rating 0-100 at 14 days after application
[27] = pre-emerge, rate 250 g ai/ha, phytotoxicity rating 0-100 at 14 days after application
[28] = crop damage, pre-emerge, rate 63 g ai/ha, phytotoxicity rating 0-100 at 14 days after application
[29] = crop damage, pre-emerge, rate 250 g ai/ha, phytotoxicity rating 0-100 at 14 days after application

COc1c(Cl)cc(F)c(-n2c(=O)cc(C(F)(F)F)n(C)c2=O)c1NC(=O)OCc1c(F)c(F)c(F)c(F)c1F [4-48]
Pre-emerge Herbicidal Activity AMARE [1, 22]: 100 | Pre-emerge Herbicidal Activity AMARE [1, 23]: 100 | Pre-emerge Herbicidal Activity ECHCG [2, 22]: 50 | Pre-emerge Herbicidal Activity ECHCG [2, 23]: 70 | Pre-emerge Herbicidal Activity SETVI [3, 22]: 100 | Pre-emerge Herbicidal Activity SETVI [3, 23]: 100 | Pre-emerge Herbicidal Activity IPOHE [4, 22]: 80 | Pre-emerge Herbicidal Activity IPOHE [4, 23]: 100 | Pre-emerge Herbicidal Activity SORHA [5, 22]: 60 | Pre-emerge Herbicidal Activity SORHA [5, 23]: 90 | Pre-emerge Herbicidal Activity CHEAL [6, 22]: 100 | Pre-emerge Herbicidal Activity CHEAL [6, 23]: 100 | Pre-emerge Herbicidal Activity DIGSA [7, 22]: 100 | Pre-emerge Herbicidal Activity DIGSA [7, 23]: 100 | Pre-emerge Herbicidal Activity CASOB [8, 22]: 40 | Pre-emerge Herbicidal Activity CASOB [8, 23]: 100 | Pre-emerge Herbicidal Activity ABUTH [9, 22]: 100 | Pre-emerge Herbicidal Activity ABUTH [9, 23]: 100 | Pre-emerge Herbicidal Activity CORN [10, 24]: 30 | Pre-emerge Herbicidal Activity CORN [10, 25]: 50 | Pre-emerge Herbicidal Activity RICE [11, 24]: 20 | Pre-emerge Herbicidal Activity RICE [11, 25]: 70 | phytotoxicity rating ECHCG ([12]; 63 g ai/ha): 20 | phytotoxicity rating ECHCG ([12]; 250 g ai/ha): 80 | phytotoxicity rating SETVI ([13]; 63 g ai/ha): 30 | phytotoxicity rating SETVI ([13]; 250 g ai/ha): 40 | phytotoxicity rating IPOHE ([14]; 63 g ai/ha): 100 | phytotoxicity rating IPOHE ([14]; 250 g ai/ha): 100 | phytotoxicity rating CHEAL ([15]; 63 g ai/ha): 100 | phytotoxicity rating CHEAL ([15]; 250 g ai/ha): 100 | phytotoxicity rating DIGSA ([16]; 63 g ai/ha): 20 | phytotoxicity rating DIGSA ([16]; 250 g ai/ha): 40 | phytotoxicity rating AMARE ([17]; 63 g ai/ha, rating scale 0-100 (0 no damage, 100 complete death)): 100 | phytotoxicity rating AMARE ([17]; 250 g ai/ha, rating scale 0-100): 100 | phytotoxicity rating CASOB ([18]; 63 g ai/ha): 95 | phytotoxicity rating CASOB ([18]; 250 g ai/ha): 100 | phytotoxicity rating ABUTH ([19]; 63 g ai/ha): 100 | phytotoxicity rating ABUTH ([19]; 250 g ai/ha): 100 | phytotoxicity rating CORN (crop damage) ([20]; 63 g ai/ha): 90 | phytotoxicity rating CORN (crop damage) ([20]; 250 g ai/ha): 90 | phytotoxicity rating RICE (crop damage) ([21]; 63 g ai/ha): 80 | phytotoxicity rating RICE (crop damage) ([21]; 250 g ai/ha): 80

O=C(Nc1cc(Cl)ccc1-n1c(=O)n2n(c1=S)CCCC2)c1ccc2ccccc2c1 [9-14]
Pre-emerge Herbicidal Activity AMARE [1, 26]: 40 | Pre-emerge Herbicidal Activity AMARE [1, 27]: 65 | Pre-emerge Herbicidal Activity ECHCG [2, 26]: 0 | Pre-emerge Herbicidal Activity ECHCG [2, 27]: 40 | Pre-emerge Herbicidal Activity SETVI [3, 26]: 0 | Pre-emerge Herbicidal Activity SETVI [3, 27]: 30 | Pre-emerge Herbicidal Activity IPOHE [4, 26]: 0 | Pre-emerge Herbicidal Activity IPOHE [4, 27]: 10 | Pre-emerge Herbicidal Activity SORHA [5, 26]: 0 | Pre-emerge Herbicidal Activity SORHA [5, 27]: 10 | Pre-emerge Herbicidal Activity CHEAL [6, 26]: 80 | Pre-emerge Herbicidal Activity CHEAL [6, 27]: 100 | Pre-emerge Herbicidal Activity DIGSA [7, 26]: 0 | Pre-emerge Herbicidal Activity DIGSA [7, 27]: 30 | Pre-emerge Herbicidal Activity CASOB [8, 26]: 0 | Pre-emerge Herbicidal Activity CASOB [8, 27]: 0 | Pre-emerge Herbicidal Activity ABUTH [9, 26]: 20 | Pre-emerge Herbicidal Activity ABUTH [9, 27]: 85 | Pre-emerge Herbicidal Activity CORN [10, 28]: 0 | Pre-emerge Herbicidal Activity CORN [10, 29]: 0 | Pre-emerge Herbicidal Activity RICE [11, 28]: 0 | Pre-emerge Herbicidal Activity RICE [11, 29]: 10 | Post-emerge Herbicidal Activity ECHCG ([12]; 63 g ai/ha): 0 | Post-emerge Herbicidal Activity ECHCG ([12]; 250 g ai/ha): 10 | Post-emerge Herbicidal Activity SETVI ([13]; 63 g ai/ha): 10 | Post-emerge Herbicidal Activity SETVI ([13]; 250 g ai/ha): 20 | Post-emerge Herbicidal Activity IPOHE ([14]; 63 g ai/ha): 80 | Post-emerge Herbicidal Activity IPOHE ([14]; 250 g ai/ha): 90 | Post-emerge Herbicidal Activity CHEAL ([15]; 63 g ai/ha): 95 | Post-emerge Herbicidal Activity CHEAL ([15]; 250 g ai/ha): 100 | Post-emerge Herbicidal Activity DIGSA ([16]; 63 g ai/ha): 0 | Post-emerge Herbicidal Activity DIGSA ([16]; 250 g ai/ha): 10 | Post-emerge Herbicidal Activity AMARE ([17]; 63 g ai/ha): 85 | Post-emerge Herbicidal Activity AMARE ([17]; 250 g ai/ha): 100 | Post-emerge Herbicidal Activity CASOB ([18]; 63 g ai/ha): 40 | Post-emerge Herbicidal Activity CASOB ([18]; 250 g ai/ha): 40 | Post-emerge Herbicidal Activity ABUTH ([19]; 63 g ai/ha): 100 | Post-emerge Herbicidal Activity ABUTH ([19]; 250 g ai/ha): 100 | Post-emerge Herbicidal Activity CORN ([20]; 63 g ai/ha): 15 | Post-emerge Herbicidal Activity CORN ([20]; 250 g ai/ha): 50 | Post-emerge Herbicidal Activity RICE ([21]; 63 g ai/ha): 0 | Post-emerge Herbicidal Activity RICE ([21]; 250 g ai/ha): 40
